We go through one compound from US10251874B2, “Crystalline forms of a JAK inhibitor compound” (THERAVANCE BIOPHARMA R&D IP, LLC, priority 2017, dated 2019).

Test [1] has as its system IL-4 stimulated pSTAT6 in CD3+ T cells. Put plainly: Assay 5: Inhibition of IL-4 stimulated pSTAT6 in CD3+ T cells. In kind it is cell-based. The settings on record: T-cell; CD3+ T cells in human PBMCs, flow cytometry; read-out: pIC50, inhibition of IL-4 stimulated pSTAT6 (converted). As to the method: The potency of the test compound for inhibition of interleukin-4 (IL-4) stimulated STAT6 phosphorylation was measured in CD3-positive (CD3+) T cells in human peripheral blood mononuclear cells (PBMCs) isolated from human whole blood (Stanford Blood Center) using flow cytometry. Because IL-4 signals through JAK, this assay provides a measure of JAK cellular potency.
CD3+ T cells were identified using a […] (PE) conjugated anti-CD3 antibody (Clone UCHT1, BD Biosciences), while an Alexa Fluor 647 conjugated anti-pSTAT6 antibody (pY641, Clone 18/P, BD Biosciences) was used to detect STAT6 phosphorylation.
Human peripheral blood mononuclear cells (PBMC) were isolated from human whole blood of healthy donors as in Assays 3 and 4. […] After incubation, cells were washed twice in FACS buffer before being analyzed using a LSRII flow cytometer (BD Biosciences).
To determine the inhibitory potency of the test compound in response to IL-4, the median fluorescent intensity (MFI) of pSTAT6 was measured in CD3+ T cells. IC50 values were determined from analysis of the inhibition curves of MFI vs compound concentration. Data are expressed as pIC50 (negative decadic logarithm IC50).

Test [2] concerns IL-6 induced pSTAT3 in retina/choroid. Put plainly: Assay 13: Pharmacodynamic assay: inhibition of IL6-induced pSTAT3 in rats. In kind it is in vivo, Lewis rats. The settings on record: rat, IVT suspension of crystalline compound 1 of Example 2, 15 μg dose, 3 day pre-treatment. Here is the method: The ability of a single intravitreal administration of test compound to inhibit IL-6 induced pSTAT3 was measured in rat retina/choroid homogenates.
Suspension formulations were prepared by combining crystalline compound 1 of Example 2 with 0.5% hydroxypropyl methylcellulose (HPMC E5 LV), 0.02% Tween 80, and 0.9% sodium chloride in purified water to attain target concentrations of 3 mg/mL and 10 mg/mL.
Female Lewis rats were intravitreally (IVT) dosed (5 μL per eye) with the suspension formulations or with the drug vehicle. Three days later, IL-6 (Peprotech; 0.1 mg/mL; 5 μL per eye) or vehicle was intravitreally administered to induce pSTAT3.
Ocular tissues were dissected one hour after the second IVT injection with IL-6. The retina/choroid tissues were homogenized and pSTAT3 levels were measured using an ELISA (Cell Signaling Technology). The percent inhibition of IL-6-induced pSTAT3 was calculated in comparison to the vehicle/vehicle and vehicle/IL-6 groups. Inhibition of greater than 100% reflects a reduction of pSTAT3 levels to below those observed in the vehicle/vehicle group.

Test [3] relates to IFNγ-induced pSTAT1 in CD14+ monocytes. The test is described as follows: Assay 7: Inhibition of IFNγ-induced pSTAT1 in CD14+ monocytes. The format is cell-based. The settings on record: Homo sapiens, Monocyte, flow cytometry, read-out: pIC50, inhibition of IFNγ-induced pSTAT1 (converted). Here is the method: The potency of the test compound for inhibition of interferon gamma (IFNγ) stimulated STAT1 phosphorylation was measured in CD14-positive (CD14+) monocytes derived from human whole blood (Stanford Blood Center) using flow cytometry. Because IFNγ signals through JAK, this assay provides a measure of JAK cellular potency.
Monocytes were identified using a fluorescein isothiocyanate (FITC) conjugated anti-CD14 antibody (Clone RM052, Beckman Coulter), and an Alexa Fluor 647 conjugated anti-pSTAT1 antibody (pY701, Clone 4a, BD Biosciences) was used to detect STAT1 phosphorylation.
Human peripheral blood mononuclear cells (PBMC) were isolated from human whole blood of healthy donors using a ficoll gradient. […] Cells were washed twice with FACS buffer, and then resuspended in 1:10 anti-pSTAT1 Alexa Fluor 647:FACS buffer (100 μL) for 30 min at RT in the dark, washed twice in FACS buffer, and analyzed using a LSRII flow cytometer (BD Biosciences).
To determine the inhibitory potency of the test compound, the median fluorescent intensity (MFI) of pSTAT1 was measured in CD14+ monocytes. IC50 values were determined from analysis of the inhibition curves of MFI vs compound concentration. Data are expressed as pIC50 (negative decadic logarithm IC50) values.
For orientation: In flow cytometry, cells or beads pass a laser one at a time.

In the case of `CCc1cc(O)c(F)cc1-c1ccc2c(-c3nc4c([nH]3)CCN(C3CCN(C)CC3)C4)n[nH]c2c1` [Compound 1, 5-ethyl-2-fluoro-4-(3-(5-(1-methylpiperidin-4-yl)-4,5,6,7-tetrahydro-1H-imidazo[4,5-c]pyridin-2-yl)-1H-indazol-6-yl)phenol], the IC50 in test [1] was 7.94 nM; in test [3] it was about 31.6 nM. Moreover, the “inhibition of IL-6-induced pSTAT3 in retina/choroid tissues” value in test [2] was 33%.
